# Active and inactive are the calls of the source. The calls are words filed in the database; no cut-off is given here.
# Key:
# Mus musculus [1] = assay: Neurotoxicity in mouse at 30 mg/kg, ip after 4 hrs by rotarod test; type: toxicity, organism-based; parameters: dose 30 mg/kg, route intraperitoneal; conditions: in vivo
# Mus musculus [2] = assay: Anticonvulsant activity against maximal electroshock-induced seizures in mouse at 100 mg/kg, ip after 4 hrs; type: functional, organism-based; parameters: dose 100 mg/kg
# Mus musculus [3] = assay: Anticonvulsant activity against maximal electroshock-induced seizures in mouse at 300 mg/kg, ip after 4 hrs; type: functional, organism-based; parameters: dose 300 mg/kg
# Mus musculus [4] = assay: Anticonvulsant activity against scMet-induced seizures in mouse at 300 mg/kg, ip after 4 hrs; type: functional, organism-based; parameters: dose 300 mg/kg
# Mus musculus [5] = assay: Anticonvulsant activity against maximal electroshock-induced seizures in mouse at 30 mg/kg, ip after 4 hrs; type: functional, organism-based; parameters: dose 30 mg/kg
# Mus musculus [6] = assay: Anticonvulsant activity against maximal electroshock-induced seizures in mouse at 30 mg/kg, ip after 0.5 hrs; type: functional, organism-based; parameters: dose 30 mg/kg
# Mus musculus [7] = assay: Anticonvulsant activity against scMet-induced seizures in mouse at 100 mg/kg, ip after 0.5 hrs; type: functional, organism-based; parameters: dose 100 mg/kg
# Mus musculus [8] = assay: Anticonvulsant activity against scMet-induced seizures in mouse at 30 mg/kg, ip after 0.5 hrs; type: functional, organism-based; parameters: dose 30 mg/kg
# Mus musculus [9] = assay: Anticonvulsant activity against scMet-induced seizures in mouse at 100 mg/kg, ip after 4 hrs; type: functional, organism-based; parameters: dose 100 mg/kg
# Mus musculus [10] = assay: Neurotoxicity in mouse at 300 mg/kg, ip after 0.5 hrs by rotarod test; type: toxicity, organism-based; parameters: dose 300 mg/kg, route intraperitoneal; conditions: in vivo
# Mus musculus [11] = assay: Anticonvulsant activity against scMet-induced seizures in mouse at 30 mg/kg, ip after 4 hrs; type: functional, organism-based; parameters: dose 30 mg/kg
# Mus musculus [12] = assay: Anticonvulsant activity against scMet-induced seizures in mouse at 300 mg/kg, ip after 0.5 hrs; type: functional, organism-based; parameters: dose 300 mg/kg
# Mus musculus [13] = assay: Anticonvulsant activity against maximal electroshock-induced seizures in mouse at 300 mg/kg, ip after 0.5 hrs; type: functional, organism-based; parameters: dose 300 mg/kg
# Mus musculus [14] = assay: Neurotoxicity in mouse at 30 mg/kg, ip after 0.5 hrs by rotarod test; type: toxicity, organism-based; parameters: dose 30 mg/kg, route intraperitoneal; conditions: in vivo
# Mus musculus [15] = assay: Neurotoxicity in mouse at 300 mg/kg, ip after 4 hrs by rotarod test; type: toxicity, organism-based; parameters: dose 300 mg/kg, route intraperitoneal; conditions: in vivo
# Mus musculus [16] = assay: Neurotoxicity in mouse at 100 mg/kg, ip after 4 hrs by rotarod test; type: toxicity, organism-based; parameters: dose 100 mg/kg, route intraperitoneal; conditions: in vivo
# Mus musculus [17] = assay: Anticonvulsant activity against maximal electroshock-induced seizures in mouse at 100 mg/kg, ip after 0.5 hrs; type: functional, organism-based; parameters: dose 100 mg/kg
# Mus musculus [18] = assay: Neurotoxicity in mouse at 100 mg/kg, ip after 0.5 hrs by rotarod test; type: toxicity, organism-based; parameters: dose 100 mg/kg, route intraperitoneal; conditions: in vivo
Compound,Neurotoxicity (Mus musculus [1]),Activity (Mus musculus [2]),Activity (Mus musculus [3]),Activity (Mus musculus [4]),Activity (Mus musculus [5]),Activity (Mus musculus [6]),Activity (Mus musculus [7]),Activity (Mus musculus [8]),Activity (Mus musculus [9]),Neurotoxicity (Mus musculus [10]),Activity (Mus musculus [11]),Activity (Mus musculus [12]),Activity (Mus musculus [13]),Neurotoxicity (Mus musculus [14]),Neurotoxicity (Mus musculus [15]),Neurotoxicity (Mus musculus [16]),Activity (Mus musculus [17]),Neurotoxicity (Mus musculus [18])
CC[C@H](CO)NCc1ccc2oc3cc(Cl)ccc3c(=O)c2c1,Not Active,inactive,Active,inactive,inactive,inactive,inactive,inactive,inactive,Neurotoxic,inactive,inactive,Active,Not Active,–,–,–,–
NC(=O)CNC(=O)c1ccc2oc3ccccc3c(=O)c2c1,Not Active,inactive,inactive,inactive,inactive,inactive,inactive,inactive,inactive,Not Active,inactive,inactive,inactive,Not Active,Not Active,Not Active,inactive,Not Active
CCOC(=O)CNC(=O)c1ccc2oc3ccccc3c(=O)c2c1,Not Active,inactive,inactive,inactive,inactive,inactive,inactive,inactive,inactive,Not Active,inactive,inactive,inactive,Not Active,Not Active,Not Active,inactive,Not Active
CC(CCl)N(C)Cc1ccc2oc3cc(Cl)ccc3c(=O)c2c1.Cl (stereo not given),Not Active,inactive,inactive,inactive,inactive,inactive,inactive,inactive,inactive,Neurotoxic,inactive,inactive,Active,Not Active,Neurotoxic,–,–,–
O=C(N[C@@H]1CCCC[C@H]1O)c1ccc2oc3ccccc3c(=O)c2c1 (racemic),Not Active,–,inactive,inactive,inactive,inactive,inactive,inactive,inactive,–,inactive,inactive,inactive,Not Active,Not Active,Not Active,inactive,Not Active
CN(CCO)Cc1ccc2oc3cc(Cl)ccc3c(=O)c2c1,Not Active,inactive,–,inactive,inactive,inactive,inactive,inactive,inactive,Neurotoxic,inactive,inactive,inactive,Not Active,Neurotoxic,Not Active,–,–
O=c1c2ccc(Cl)cc2oc2ccc(CNCCO)cc12,Not Active,inactive,Active,inactive,inactive,inactive,inactive,inactive,inactive,–,inactive,inactive,Active,–,Not Active,Not Active,–,–
O=c1c2ccc(Cl)cc2oc2ccc(CNCCCCCO)cc12,Not Active,inactive,Active,inactive,inactive,inactive,inactive,inactive,inactive,Neurotoxic,inactive,inactive,Active,–,–,Not Active,–,–
C[C@@H](CO)N(C)Cc1ccc2oc3cc(Cl)ccc3c(=O)c2c1,–,–,Active,inactive,inactive,inactive,inactive,inactive,inactive,Neurotoxic,inactive,inactive,Active,–,Neurotoxic,Not Active,Active,–
C[C@H](O)CNCc1ccc2oc3cc(Cl)ccc3c(=O)c2c1,Not Active,Active,inactive,inactive,Active,inactive,inactive,inactive,inactive,–,inactive,inactive,Active,Not Active,–,Not Active,Active,–
O=C(NCCCCO)c1ccc2oc3ccccc3c(=O)c2c1,Not Active,inactive,inactive,inactive,inactive,inactive,inactive,inactive,inactive,Not Active,inactive,inactive,inactive,Not Active,Not Active,Not Active,inactive,Not Active
C[C@@H](O)CNCc1ccc2oc3cc(Cl)ccc3c(=O)c2c1,–,Active,inactive,inactive,Active,inactive,inactive,inactive,inactive,Neurotoxic,inactive,inactive,Active,–,Neurotoxic,–,Active,–
CC(CO)NC(=O)c1ccc2oc3cc(Cl)ccc3c(=O)c2c1 (racemic),Not Active,inactive,inactive,inactive,inactive,inactive,inactive,inactive,inactive,Not Active,inactive,inactive,inactive,–,Not Active,Not Active,inactive,Not Active
CC(CO)NC(=O)c1ccc2oc3ccccc3c(=O)c2c1 (stereo not given),Not Active,inactive,inactive,inactive,inactive,inactive,inactive,inactive,inactive,Not Active,inactive,inactive,inactive,Not Active,Not Active,Not Active,inactive,Not Active
